Data as given in ChEMBL document CHEMBL6134873, “Identification of Novel Cyclobutane-Based Derivatives as Potent Acetyl-CoA Carboxylase Allosteric Inhibitors for Nonalcoholic Steatohepatitis Drug Discovery” (J Med Chem, 2025).

Legend:
[1] = Tmax in Sprague-Dawley rat at 3 mg/kg, po measured for 0.25 to 24 hrs by LC-MS/MS analysis; assay type: ADME, organism-based; conditions: in vivo, time 0.25-24 hrs
[2] = Cmax in Sprague-Dawley rat at 3 mg/kg, po measured for 0.25 to 24 hrs by LC-MS/MS analysis; assay type: ADME, organism-based; conditions: in vivo, time 0.25-24 hrs
[3] = AUC (0 to t) in Sprague-Dawley rat at 3 mg/kg, po measured for 0.25 to 24 hrs by LC-MS/MS analysis; assay type: ADME, organism-based; conditions: in vivo, time 0.25-24 hrs
[4] = MRT (0 to t) in Sprague-Dawley rat at 3 mg/kg, po measured for 0.25 to 24 hrs by LC-MS/MS analysis; assay type: ADME, organism-based; conditions: in vivo, time 0.25-24 hrs
[5] = Half life in Sprague-Dawley rat at 1 mg/kg, iv measured for 0.25 to 24 hrs by LC-MS/MS analysis; assay type: ADME, organism-based; conditions: in vivo, time 0.25-24 hrs
[6] = AUC (0 to t) in Sprague-Dawley rat at 1 mg/kg, iv measured for 0.25 to 24 hrs by LC-MS/MS analysis; assay type: ADME, organism-based; conditions: in vivo, time 0.25-24 hrs
[7] = MRT (0 to t) in Sprague-Dawley rat at 1 mg/kg, iv measured for 0.25 to 24 hrs by LC-MS/MS analysis; assay type: ADME, organism-based; conditions: in vivo, time 0.25-24 hrs
[8] = Clearance in Sprague-Dawley rat at 1 mg/kg, iv measured for 0.25 to 24 hrs by LC-MS/MS analysis; assay type: ADME, organism-based; conditions: in vivo, time 0.25-24 hrs
[9] = Half life in Sprague-Dawley rat at 3 mg/kg, po measured for 0.25 to 24 hrs by LC-MS/MS analysis; assay type: ADME, organism-based; conditions: in vivo, time 0.25-24 hrs
[10] = Biodistribution in liver of 12 hr-fasted male wild-type Sprague-Dawley rat at 3 mg/kg, po measured after 4 hrs by LC-MS/MS analysis; assay type: ADME, organism-based; conditions: in vivo
[11] = Biodistribution in 12 hr-fasted male wild-type Sprague-Dawley rat assessed as increase in ratio of drug concentration in kidney/plasma at 3 mg/kg, po measured after 4 hrs by LC-MS/MS analysis; assay type: ADME, organism-based; conditions: in vivo
[12] = Inhibition of fatty acid synthesis in human HepG2 cells preincubated for 1.5 hrs followed by [14C] acetate addition measured after 1.5 hrs by liquid scintillation counter analysis; assay type: functional, cell-based
[13] = Suppression of Col1A1 mRNA expression in TGF-beta1-treated human LX2 cells incubated for 24 hrs by qPCR analysis; assay type: functional, cell-based; conditions: LX-2, 24 h
[14] = Toxicity in Sprague-Dawley rat model of DEN-induced liver fibrosis assessed as animal mortality at 3 to 10 mg/kg, po qd treated for 4 weeks; assay type: organism-based; conditions: in vivo, 672 h, dose 3-10 mg/kg
[15] = Toxicity in Sprague-Dawley rat model of DEN-induced liver fibrosis assessed as body weight loss at 3 to 10 mg/kg, po qd treated for 4 weeks; assay type: organism-based; conditions: in vivo, 672 h, dose 3-10 mg/kg
[16] = Protein binding in rat plasma; assay type: ADME, cell-free; conditions: read-out: PPB (converted)
[17] = Protein binding in dog plasma; assay type: ADME, cell-free, Canis lupus familiaris; conditions: read-out: PPB (converted)
[18] = Protein binding in monkey plasma; assay type: ADME, cell-free, Macaca mulatta; conditions: rhesus monkey, read-out: PPB (converted)
[19] = Intrinsic clearance in human liver microsomes; assay type: ADME, Microsome; conditions: read-out: CLH
[20] = Intrinsic clearance in rat liver microsomes; assay type: ADME, Microsome; conditions: read-out: CLH
[21] = Intrinsic clearance in dog liver microsomes; assay type: ADME, Canis lupus familiaris, Microsome; conditions: read-out: CLH
[22] = target: T1, Cytochrome P450 2B6 (Homo sapiens, UniProt P20813); assay: Inhibition of CYP2B6 (unknown origin); assay type: ADME
T1 sequence (P20813 whole entry): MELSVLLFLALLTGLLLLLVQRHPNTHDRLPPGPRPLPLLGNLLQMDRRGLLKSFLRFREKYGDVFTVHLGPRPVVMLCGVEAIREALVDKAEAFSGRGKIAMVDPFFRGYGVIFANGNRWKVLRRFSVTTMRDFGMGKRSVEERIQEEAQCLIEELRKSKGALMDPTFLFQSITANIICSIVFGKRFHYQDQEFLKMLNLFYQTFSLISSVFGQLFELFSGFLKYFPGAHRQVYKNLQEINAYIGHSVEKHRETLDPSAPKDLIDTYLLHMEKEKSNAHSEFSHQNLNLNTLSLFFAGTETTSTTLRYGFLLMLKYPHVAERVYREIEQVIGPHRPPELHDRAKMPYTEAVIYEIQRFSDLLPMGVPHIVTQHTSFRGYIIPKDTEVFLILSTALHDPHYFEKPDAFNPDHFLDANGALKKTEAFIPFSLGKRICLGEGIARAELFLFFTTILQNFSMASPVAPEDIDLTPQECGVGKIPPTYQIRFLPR

[23] = target: T2, Cytochrome P450 2C8 (Homo sapiens, UniProt P10632); assay: Inhibition of CYP2C8 (unknown origin); assay type: ADME
T2 sequence (P10632 whole entry): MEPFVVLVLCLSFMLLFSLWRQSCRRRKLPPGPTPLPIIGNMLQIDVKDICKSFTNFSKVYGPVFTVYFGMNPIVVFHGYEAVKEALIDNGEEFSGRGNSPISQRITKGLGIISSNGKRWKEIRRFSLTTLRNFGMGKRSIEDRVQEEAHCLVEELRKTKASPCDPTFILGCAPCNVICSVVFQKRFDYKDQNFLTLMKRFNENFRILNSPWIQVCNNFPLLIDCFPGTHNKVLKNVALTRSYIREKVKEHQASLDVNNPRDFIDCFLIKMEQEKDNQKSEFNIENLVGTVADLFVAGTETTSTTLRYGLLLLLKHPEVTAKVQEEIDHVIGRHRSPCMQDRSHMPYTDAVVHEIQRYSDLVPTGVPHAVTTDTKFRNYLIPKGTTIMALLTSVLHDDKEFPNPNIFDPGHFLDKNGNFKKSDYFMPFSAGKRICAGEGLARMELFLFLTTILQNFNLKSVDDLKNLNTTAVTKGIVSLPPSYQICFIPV

[24] = target: Cytochrome P450 2C9 (Homo sapiens, UniProt P11712); assay: Inhibition of CYP2C9 (unknown origin); assay type: ADME
Sequence of Cytochrome P450 2C9 (P11712 whole entry): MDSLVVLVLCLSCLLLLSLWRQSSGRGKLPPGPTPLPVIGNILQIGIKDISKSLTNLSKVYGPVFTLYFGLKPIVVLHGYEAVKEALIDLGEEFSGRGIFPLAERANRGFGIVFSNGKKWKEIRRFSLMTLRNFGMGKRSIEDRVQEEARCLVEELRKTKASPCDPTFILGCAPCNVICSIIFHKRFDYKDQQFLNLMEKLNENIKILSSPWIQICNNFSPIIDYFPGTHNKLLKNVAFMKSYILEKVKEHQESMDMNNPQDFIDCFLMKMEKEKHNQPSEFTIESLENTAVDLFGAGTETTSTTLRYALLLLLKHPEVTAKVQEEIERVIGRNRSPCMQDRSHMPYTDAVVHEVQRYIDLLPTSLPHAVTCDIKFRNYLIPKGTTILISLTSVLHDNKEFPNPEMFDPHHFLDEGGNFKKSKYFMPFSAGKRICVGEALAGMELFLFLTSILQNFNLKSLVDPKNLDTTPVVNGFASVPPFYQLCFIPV

[25] = target: Cytochrome P450 2C19 (Homo sapiens, UniProt P33261); assay: Inhibition of CYP2C19 (unknown origin); assay type: ADME
Sequence of Cytochrome P450 2C19 (P33261 whole entry): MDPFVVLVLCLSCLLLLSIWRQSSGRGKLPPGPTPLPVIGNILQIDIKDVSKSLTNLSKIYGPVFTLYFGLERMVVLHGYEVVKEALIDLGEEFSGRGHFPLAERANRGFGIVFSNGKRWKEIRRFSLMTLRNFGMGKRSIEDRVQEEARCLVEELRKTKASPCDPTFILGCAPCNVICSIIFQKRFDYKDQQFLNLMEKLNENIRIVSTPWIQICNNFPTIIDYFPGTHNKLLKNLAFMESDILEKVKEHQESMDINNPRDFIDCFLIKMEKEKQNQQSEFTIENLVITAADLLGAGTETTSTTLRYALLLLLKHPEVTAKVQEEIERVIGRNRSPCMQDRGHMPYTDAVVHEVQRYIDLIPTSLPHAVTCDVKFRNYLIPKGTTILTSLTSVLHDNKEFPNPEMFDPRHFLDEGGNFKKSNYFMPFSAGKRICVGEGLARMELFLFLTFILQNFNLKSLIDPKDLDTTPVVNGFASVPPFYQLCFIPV

[26] = target: Cytochrome P450 2D6 (Homo sapiens, UniProt P10635); assay: Inhibition of CYP2D6 (unknown origin); assay type: ADME
Sequence of Cytochrome P450 2D6 (P10635 whole entry): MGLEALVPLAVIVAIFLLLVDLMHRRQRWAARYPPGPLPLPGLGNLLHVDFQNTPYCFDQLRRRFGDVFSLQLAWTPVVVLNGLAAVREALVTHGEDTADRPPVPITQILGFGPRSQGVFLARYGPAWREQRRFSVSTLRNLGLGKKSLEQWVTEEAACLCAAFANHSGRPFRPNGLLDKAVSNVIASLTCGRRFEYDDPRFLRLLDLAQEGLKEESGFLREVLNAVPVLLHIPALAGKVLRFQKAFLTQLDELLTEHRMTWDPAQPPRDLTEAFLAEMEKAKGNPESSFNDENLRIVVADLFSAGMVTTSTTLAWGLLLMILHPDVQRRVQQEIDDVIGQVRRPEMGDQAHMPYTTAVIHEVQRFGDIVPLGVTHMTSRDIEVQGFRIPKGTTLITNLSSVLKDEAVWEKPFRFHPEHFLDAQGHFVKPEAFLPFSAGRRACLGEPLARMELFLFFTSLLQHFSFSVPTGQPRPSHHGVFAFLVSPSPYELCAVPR

[27] = target: Cytochrome P450 3A4 (Homo sapiens, UniProt P08684); assay: Inhibition of CYP3A4 (unknown origin) using testosterone as substrate; assay type: ADME
Sequence of Cytochrome P450 3A4 (P08684 whole entry): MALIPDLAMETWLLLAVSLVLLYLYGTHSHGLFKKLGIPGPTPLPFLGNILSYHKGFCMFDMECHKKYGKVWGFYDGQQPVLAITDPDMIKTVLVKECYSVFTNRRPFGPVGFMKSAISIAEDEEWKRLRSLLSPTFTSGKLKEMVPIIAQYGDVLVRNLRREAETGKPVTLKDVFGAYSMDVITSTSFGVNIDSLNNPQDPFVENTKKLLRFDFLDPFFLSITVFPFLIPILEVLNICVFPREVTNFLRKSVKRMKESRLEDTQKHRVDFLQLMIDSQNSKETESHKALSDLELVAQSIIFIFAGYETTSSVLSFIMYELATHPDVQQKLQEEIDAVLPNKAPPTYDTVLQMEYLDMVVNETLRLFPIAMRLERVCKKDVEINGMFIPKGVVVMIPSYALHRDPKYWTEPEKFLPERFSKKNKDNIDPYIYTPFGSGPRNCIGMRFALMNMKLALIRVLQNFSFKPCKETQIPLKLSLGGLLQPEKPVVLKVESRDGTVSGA

[28] = Stability of compound assessed as (1S,3s)-3-(6-carbamoyl-1-((R)-2-(2-methoxyphenyl)-2-((tetrahydro-2H-pyran-4-yl)oxy)ethyl)-5-methyl-2,4-dioxo-1,4-dihydrothieno[2,3-d]pyrimidin-3(2H)-y l)-1-methylcyclobutane-1-carboxylic acid metabolite formation by measuring retention time; assay type: ADME
[29] = Stability of compound assessed as compound isomerization by measuring retention time; assay type: physicochemical
[30] = target: Acetyl-CoA carboxylase 2 (Homo sapiens, UniProt O00763)
Sequence of Acetyl-CoA carboxylase 2 (O00763 whole entry): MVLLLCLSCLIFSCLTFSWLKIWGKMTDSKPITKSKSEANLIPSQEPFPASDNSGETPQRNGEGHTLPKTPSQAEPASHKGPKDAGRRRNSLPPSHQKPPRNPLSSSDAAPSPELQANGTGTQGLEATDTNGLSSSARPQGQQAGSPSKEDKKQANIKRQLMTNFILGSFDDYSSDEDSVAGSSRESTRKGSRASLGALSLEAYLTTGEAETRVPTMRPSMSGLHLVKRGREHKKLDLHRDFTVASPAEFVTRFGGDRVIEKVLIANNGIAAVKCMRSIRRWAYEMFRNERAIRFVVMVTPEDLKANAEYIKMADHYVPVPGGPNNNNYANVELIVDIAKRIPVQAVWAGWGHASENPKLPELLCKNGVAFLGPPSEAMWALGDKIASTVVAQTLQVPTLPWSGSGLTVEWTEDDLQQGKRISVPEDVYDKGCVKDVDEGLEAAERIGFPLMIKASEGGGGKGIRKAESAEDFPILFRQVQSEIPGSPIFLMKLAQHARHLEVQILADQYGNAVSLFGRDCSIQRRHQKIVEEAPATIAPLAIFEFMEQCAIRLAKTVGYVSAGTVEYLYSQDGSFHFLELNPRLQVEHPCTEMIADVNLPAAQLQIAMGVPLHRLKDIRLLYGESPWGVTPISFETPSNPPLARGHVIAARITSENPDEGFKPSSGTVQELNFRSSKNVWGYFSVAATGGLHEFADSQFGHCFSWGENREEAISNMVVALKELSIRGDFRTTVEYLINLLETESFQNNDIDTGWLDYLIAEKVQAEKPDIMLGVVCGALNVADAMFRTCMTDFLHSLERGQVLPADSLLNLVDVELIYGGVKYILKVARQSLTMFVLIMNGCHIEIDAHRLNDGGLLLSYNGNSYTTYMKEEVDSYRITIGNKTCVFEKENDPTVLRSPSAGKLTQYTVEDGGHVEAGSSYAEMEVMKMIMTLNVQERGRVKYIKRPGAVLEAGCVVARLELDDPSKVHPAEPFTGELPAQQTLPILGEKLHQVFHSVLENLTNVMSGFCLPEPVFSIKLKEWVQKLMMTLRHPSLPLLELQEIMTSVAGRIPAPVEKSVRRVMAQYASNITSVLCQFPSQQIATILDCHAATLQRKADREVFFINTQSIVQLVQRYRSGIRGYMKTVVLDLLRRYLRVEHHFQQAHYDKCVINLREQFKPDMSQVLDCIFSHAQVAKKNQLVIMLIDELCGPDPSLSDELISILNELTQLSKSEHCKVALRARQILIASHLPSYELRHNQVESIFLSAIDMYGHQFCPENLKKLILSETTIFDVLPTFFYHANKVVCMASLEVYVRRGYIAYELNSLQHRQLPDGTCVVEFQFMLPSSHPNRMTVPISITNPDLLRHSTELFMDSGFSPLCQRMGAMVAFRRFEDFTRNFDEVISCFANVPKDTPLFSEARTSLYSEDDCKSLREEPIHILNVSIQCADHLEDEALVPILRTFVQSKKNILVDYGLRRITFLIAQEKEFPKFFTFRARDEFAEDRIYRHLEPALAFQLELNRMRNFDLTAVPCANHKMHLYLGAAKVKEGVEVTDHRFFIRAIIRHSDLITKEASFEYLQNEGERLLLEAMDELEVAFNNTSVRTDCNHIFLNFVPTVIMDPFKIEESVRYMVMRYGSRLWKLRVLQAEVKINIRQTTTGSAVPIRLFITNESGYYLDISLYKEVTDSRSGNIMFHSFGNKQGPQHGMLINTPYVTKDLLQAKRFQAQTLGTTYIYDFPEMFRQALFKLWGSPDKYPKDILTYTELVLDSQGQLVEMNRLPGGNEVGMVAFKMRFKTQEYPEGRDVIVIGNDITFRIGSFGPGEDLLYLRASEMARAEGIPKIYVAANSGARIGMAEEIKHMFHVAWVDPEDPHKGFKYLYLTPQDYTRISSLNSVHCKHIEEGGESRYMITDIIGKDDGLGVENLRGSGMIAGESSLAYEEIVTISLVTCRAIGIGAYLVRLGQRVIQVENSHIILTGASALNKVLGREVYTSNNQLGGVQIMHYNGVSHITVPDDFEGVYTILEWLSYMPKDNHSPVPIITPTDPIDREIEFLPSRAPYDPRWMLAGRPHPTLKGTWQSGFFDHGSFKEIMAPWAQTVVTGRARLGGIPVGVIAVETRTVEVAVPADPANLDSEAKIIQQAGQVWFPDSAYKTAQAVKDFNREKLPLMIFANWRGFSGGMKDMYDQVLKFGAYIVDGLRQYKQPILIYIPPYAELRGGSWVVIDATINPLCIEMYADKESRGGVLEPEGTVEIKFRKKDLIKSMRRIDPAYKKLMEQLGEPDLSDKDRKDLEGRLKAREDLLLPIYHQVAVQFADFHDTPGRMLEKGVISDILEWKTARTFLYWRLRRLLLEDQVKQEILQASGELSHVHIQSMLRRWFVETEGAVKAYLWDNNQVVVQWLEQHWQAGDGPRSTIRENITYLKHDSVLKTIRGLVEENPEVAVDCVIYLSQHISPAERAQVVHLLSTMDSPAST
Description: Inhibition of recombinant human ACC2 using acetyl-Co A as substrate incubated for 60 mins in presence of ATP by ADP-Glo assay

[31] = in vivo; conditions: Sprague-Dawley, rat, plasma, po, 3 mg/kg
Description: Drug concentration in plasma of Sprague-Dawley rat at 3 mg/kg, po measured after 0.25 hrs by LC-MS/MS analysis

[32] = in vivo; conditions: Sprague-Dawley, rat, plasma, po, 3 mg/kg; remark: listed apart in the source
Description: Drug concentration in plasma of Sprague-Dawley rat at 3 mg/kg, po measured after 1 hr by LC-MS/MS analysis

[33] = in vivo; conditions: Sprague-Dawley, rat, plasma, po, 3 mg/kg; remark: listed apart in the source
Description: Drug concentration in plasma of Sprague-Dawley rat at 3 mg/kg, po measured after 4 hrs by LC-MS/MS analysis

[34] = in vivo; conditions: Sprague-Dawley, rat, liver, po, 3 mg/kg
Description: Drug concentration in liver of Sprague-Dawley rat at 3 mg/kg, po measured after 0.25 hrs by LC-MS/MS analysis

## COc1ccccc1[C@H](Cn1c(=O)n([C@H]2C[C@@](C)(C(=O)O)C2)c(=O)c2c(C)c(-c3ncco3)sc21)OC1CCOCC1
[1]
  Tmax: 24 min
[2]
  Cmax: 38 ng/mL
[3]
  AUC(0-t): 174 ng·h/mL
[4]
  MRT last: 162 min
[5]
  half-life: 30 min
[6]
  AUC(0-t): 263 ng·h/mL
[7]
  MRT last: 18 min
[8]
  clearance: 63.3 mL/min/kg
[9]
  half-life: 198 min
[10]
  Drug uptake: Active
[11]
  Drug uptake: Not_active
[12]
  IC50: 0.0069 µM
[13]
  IC50: 0.507 µM
[14]
  Activity: Non-toxic
[15]
  Activity: Non-toxic
[16]
  fraction unbound: 0.029
[17]
  fraction unbound: 0.054
[18]
  fraction unbound: 0.043
[19]
  CLint scaled: < 8.6 mL/min/kg
[20]
  CLint scaled: < 17.3 mL/min/kg
[21]
  CLint scaled: < 13.8 mL/min/kg
[22]
  IC50: > 30 µM
[23]
  IC50: > 30 µM
[24]
  IC50: > 30 µM
[25]
  IC50: > 30 µM
[26]
  IC50: > 30 µM
[27]
  IC50: > 30 µM
[28]
  Retention_time: 7.64 min
[29]
  Retention_time: 11.01 min
[30]
  IC50: 0.00374 µM
[31]
  concentration at 0.25 h: 13.7 ng/mL
[32]
  concentration at 1 h: 56.8 ng/mL
[33]
  concentration at 4 h: 72.8 ng/mL
[34]
  concentration at 0.25 h: 3390 ng/mL
